From patent US10314799B2 (priority 2015, dated 2019)
Read-outs that look alike come from different tables or passages of the source.

Assays:
[1] = system: PEDV; conditions: Virus Research (2013), 171(1), 44-53; cited from earlier work
[2] = system: pseudorabies viral diarrhea; format: in vivo, pigs
[3] = system: porcine epidemic diarrhea; test: Prevention of porcine epidemic diarrhea of weaned piglets, care pigs and finishing pigs; format: in vivo; conditions: 200 mg per kilogram of body weight per day
Protocol: Prevention of the porcine epidemic diarrhea on the weaned piglets, the care pigs and the finishing pigs with taurine was implemented by orally administering taurine to a swine herd, wherein the administration may be carried out by means of feeding in water or mixed feeding.
Drug administration time: a preventative administration was carried out during an epidemic period of the disease, or in autumn, winter and spring when the temperature was low and changed greatly, that is, in the season when the porcine epidemic diarrhea frequently occurs. Generally, the administration can be carried out for a long-term. In consideration of the use-cost, the drug administration time is preferably 3-30 days, and more preferably, 7-14 days. The effect is subject to an obvious time-effect relationship.
Drug administration dosage: 0.005-2% of taurine was added in daily-drinking water for the pigs to drink freely; or 0.01-5% of taurine was added into the feed, which is equivalent to a dosage of 50-10000 mg per kilogram of body weight per day of taurine, and the administration was in a single dose or in divided doses. The effect is subject to an obvious quantity-effect relationship.
Specific operations: 120 healthy weaned piglets, 120 healthy care pigs and 120 healthy finishing pigs were selected and randomly divided into two groups equivalently. Control group: conventional feeding; experimental group: conventional feeding+taurine (the dosage of taurine was 200 mg per kilogram of body weight per day).

[4] = system: porcine epidemic diarrhea; test: Treatment of porcine epidemic diarrhea of weaned piglets, care pigs and finishing pigs; format: in vivo; conditions: 300 mg per kilogram of body weight per day
Protocol: Treatment of the porcine epidemic diarrhea on the weaned piglets, the care pigs and the finishing pigs with taurine was implemented by orally administering taurine to the pigs, wherein the administration may be carried out by means of feeding in water or mixed feeding.
Drug administration time: the administration was carried out from the day of occurrence of the disease, and in consideration of the use-cost, the drug administration time is preferably 3-30 days, and more preferably 7-14 days. The effect is subject to an obvious time-effect relationship.
Drug administration dosage: 0.1-2% of taurine was added in the daily-drinking water for the pigs to drink freely; or 0.2-5% of taurine was added into the feed, which is equivalent to a dosage of 100-10000 mg per kilogram of body weight per day of taurine, and the administration was in a single dose or in divided doses. The effect is subject to an obvious quantity-effect relationship.
Specific operations: 60 diseased weaned piglets, 60 diseased care pigs and 60 diseased finishing pigs were selected, and were randomly divided into two groups equivalently. Control group: conventional supportive therapy (fluid infusion+antibiotic therapy+atropine sulfate); experimental group: treatment with taurine (the dosage of taurine was 300 mg per kilogram of body weight per day).

[5] = system: rotavirus diarrhea; test: Treatment of rotavirus diarrhea; format: in vivo, pigs
[6] = system: PEDV; test: Prevention of porcine epidemic diarrhea of newborn piglets by orally administering taurine to PEDV-carried pregnant sows; format: in vivo, pigs; conditions: taurine 50 g per sow per day, oral
Text: Prevention of the porcine epidemic diarrhea on the newborn piglets with taurine was implemented by orally administering taurine to pregnant sows.
Drug administration time: 3-30 days before birth of piglets until 15 days after birth of piglets. In consideration of a use-cost, the drug administration time is preferably 5-20 days before birth of piglets until 10 days after birth of piglets, and more preferably 7-14 days before birth of piglets until 5 days after birth of piglets. The effect is subject to an obvious time-effect relationship. The drug administration time for before birth of piglets directly determines a disease incidence of the newborn piglets.
Drug administration dosage: each pregnant sow was administered with 5-500 g of taurine per day, and the administration was in a single dose or in divided doses. The effect is subject to an obvious quantity-effect relationship.
Specific operations: pregnant sows were selected and excrement thereof was tested by RT-PCR to determine the pregnant sows carrying PEDV in vivo. 60 PEDV-carried pregnant sows were divided into two groups randomly. Control group: conventional feeding; experimental group: conventional feeding+50 g per sow per day of taurine.

[7] = system: porcine epidemic diarrhea; test: Treatment of porcine epidemic diarrhea of newborn suckling piglets (piglets and lactating sows treated); format: in vivo, pigs; conditions: diseased newborn suckling piglets; 100 g per sow per day, 0.2 g per piglet per day
Protocol: Treatment of the porcine epidemic diarrhea on newborn piglets with taurine was implemented by orally administering a taurine solution to diseased suckling piglets and administering taurine to lactating sows, that is, simultaneous treatment of both the suckling piglets and the lactating sows.
Drug administration time: the administration by drenching/mixed-feeding was carried out on the day when the disease occurred in the suckling piglets and a non-interrupted administration lasted for 3-10 days. Lactating sows: non-interrupted oral administration lasted for 5-10 days.
Drug administration dosage: the administration by drenching and/or mixed-feeding was carried out on the day when the disease occurred in the suckling piglets. The administration by drenching: 2% taurine solution at a dosage of 1-5 mL per time and it was taken 2-6 times per day. The administration by mixed-feeding: 1-20 g/L of taurine solution was drunk freely. Lactating sows: each sow was administered with 5-500 g of taurine per day and the administration was in a single dose or in divided doses.
Specific operations: 40 litters of diseased newborn suckling piglets and sows thereof were selected and randomly divided into two groups equivalently. Control group: conventional supportive therapy (fluid infusion+antibiotic therapy+atropine sulfate); experimental group: treatment with taurine.

[8] = system: porcine transmissible gastroenteritis; format: in vivo, pigs
[9] = system: epidemic diarrhea; conditions: orally administered to diseased piglets, specific dose; cited from earlier work
[10] = care pigs, dosage as in Embodiment 4
[11] = newborn piglets, dosage as in Embodiment 2
[12] = weaned piglets, dosage as in Embodiment 4
[13] = finishing pigs, dosage as in Embodiment 4

## NC(=O)c1ncn([C@@H]2O[C@H](CO)[C@@H](O)[C@H]2O)n1 [Ribavirin]
[1]
  inhibition of replication of PEDV: capable of inhibiting replication of PEDV

## NCCS(=O)(=O)O [taurine, β-aminoethanesulfonic acid]
[2]; [10]
  Prognosis: General
  Survival rate (%): 43.3%
[2]; [11]
  Survival rate (%): 0%
[2]; summary of Table 5
  treatment effect on the pseudorabies viral diarrhea: no treatment effect
[3]; care pigs
  Disease incidence (%): 3.3%
  Prognosis: Excellent
  Survival rate (%): 96.6%
[3]; finishing pigs
  Disease incidence (%): 0%
  Prognosis: Excellent
  Survival rate (%): 98.3%
[3]; weaned piglets
  Disease incidence (%): 6.6%
  Prognosis: Excellent
  Survival rate (%): 96.6%
[4]; diseased care pigs
  Prognosis: Good
  Survival rate (%): 93.3%
[4]; diseased finishing pigs
  Prognosis: Good
  Survival rate (%): 100%
[4]; diseased weaned piglets
  Prognosis: Good
  Survival rate (%): 90.0%
[5]; [10]
  Prognosis: Good
  Survival rate (%): 96.6%
[5]; [11]
  Prognosis: Good
  Survival rate (%): 93.6%
[5]; [12]
  Prognosis: Good
  Survival rate (%): 96.6%
[6]
  Death rate of the newborn piglets (%): 75.1%
  Disease incidence of the new born piglets (%): 85%
[7]
  10-day-aged survival rate (%): 22.5%
  Prognosis: Good
  Weaned survival rate: 20.7
[8]; [10]
  Prognosis: Good
  Survival rate (%): 93.3%
[8]; [13]
  Prognosis: Good
  Survival rate (%): 96.6%
[8]; [11]
  Prognosis: Good
  Survival rate (%): 16.6%
[8]; [12]
  Prognosis: Good
  Survival rate (%): 90%

## povidone iodine
[9]
  improvement of survival rate: 5-10%
